# Activity calls are given as the source filed them. No cut-off for these calls is given here.
# Tests used:
# Mus musculus [1] = test: Antithrombotic activity in FeCl3-induced carotid arterial thrombosis C57BL/6J mouse model assessed as increase in blood flow velocity at 10 mg/kg, po measured after 2 to 4 hrs; type: functional, organism-based; details: time 2-4 hrs
# Mus musculus [2] = test: In vivo inhibition of FXIa in FeCl3-induced carotid arterial thrombosis C57BL/6J mouse model assessed as decrease in FXIa level in plasma at 5 to 30 mg/kg, po measured after 0.5 hrs by ELISA; type: functional, organism-based; details: dose 5-30 mg/kg
# Mus musculus [3] = test: Antithrombotic activity in po dosed FeCl3-induced carotid arterial thrombosis C57BL/6J mouse model assessed as increase in mean blood flow velocity measured after 0.5 hrs; type: functional, organism-based; details: dose 5-30 mg/kg
# [4] = Toxicity in male New Zealand white rabbit assessed as prolongation of bleeding time at 2 to 6 mg/kg, iv by ear bleeding assay; type: organism-based, Oryctolagus cuniculus; details: in vivo, dose 2-6 mg/kg
# Mus musculus [5] = test: Antithrombotic activity in FeCl3-induced carotid arterial thrombosis C57BL/6J mouse model assessed as increase in peak velocity at 10 mg/kg, po measured after 2 to 4 hrs; type: functional, organism-based; details: time 2-4 hrs
# [6] = Acute toxicity in C57BL/6J mouse assessed as effect on serum AST level at 60 to 100 mg/kg, po administered as single dose for 14 days; type: organism-based; details: in vivo, 336 h, dose 60-100 mg/kg, time 14 day
# [7] = Selectivity index, ratio of IC50 for inhibition of plasmin (unknown origin) using PyroGlu-Phe-Lys-pNA.HCl as substrate to IC50 for inhibition of human FXIa using p-Glu-Pro-Arg-pNA.HCl as substrate
# [8] = Acute toxicity in C57BL/6J mouse assessed as effect on liver weight at 60 to 100 mg/kg, po measured after 24 hrs; type: organism-based; details: in vivo, dose 60-100 mg/kg
# [9] = Selectivity index, ratio of IC50 for inhibition of FXa (unknown origin) using Z-D-Arg-Gly-Arg-pNA.2HCl as substrate to IC50 for inhibition of human FXIa using p-Glu-Pro-Arg-pNA.HCl as substrate
# [10] = Acute toxicity in C57BL/6J mouse assessed as effect on serum ALT level at 60 to 100 mg/kg, po administered as single dose for 14 days; type: organism-based; details: in vivo, 336 h, dose 60-100 mg/kg, time 14 day
# [11] = Acute toxicity in C57BL/6J mouse assessed as effect on plasma ALP level at 60 to 100 mg/kg, po measured after 24 hrs; type: organism-based; details: in vivo, dose 60-100 mg/kg
# Prothrombin = Prothrombin (Homo sapiens, UniProt P00734); test: Inhibition of thrombin (unknown origin) using H-D-Phe-Pip-Arg-pNA.2HCl as substrate incubated for 30 mins followed by substrate addition and measured after 60 mins by microplate reader analysis
# [12] = Acute toxicity in C57BL/6J mouse assessed as effect on serum ALP level at 60 to 100 mg/kg, po administered as single dose for 14 days; type: organism-based; details: in vivo, 336 h, dose 60-100 mg/kg, time 14 day
# [13] = Selectivity index, ratio of IC50 for inhibition of chymotrypsin (unknown origin) using N-Suc-Ala-Ala-Pro-Phe-pNA as substrate to IC50 for inhibition of human FXIa using p-Glu-Pro-Arg-pNA.HCl as substrate
# Plasma [14] = test: Anticoagulant activity in citrated human plasma assessed as prolongation of prothrombin time incubated for 3 mins by PT reagent based automated coagulometric analysis; type: functional, cell-free
# Coagulation factor XI = Coagulation factor XI (Homo sapiens, UniProt P03951); test: Inhibition of human FXIa using p-Glu-Pro-Arg-pNA.HCl as substrate incubated for 30 mins followed by substrate addition and measured after 60 mins by microplate reader analysis
# Coagulation factor XI, sequence (P03951 19-387 limits assumed): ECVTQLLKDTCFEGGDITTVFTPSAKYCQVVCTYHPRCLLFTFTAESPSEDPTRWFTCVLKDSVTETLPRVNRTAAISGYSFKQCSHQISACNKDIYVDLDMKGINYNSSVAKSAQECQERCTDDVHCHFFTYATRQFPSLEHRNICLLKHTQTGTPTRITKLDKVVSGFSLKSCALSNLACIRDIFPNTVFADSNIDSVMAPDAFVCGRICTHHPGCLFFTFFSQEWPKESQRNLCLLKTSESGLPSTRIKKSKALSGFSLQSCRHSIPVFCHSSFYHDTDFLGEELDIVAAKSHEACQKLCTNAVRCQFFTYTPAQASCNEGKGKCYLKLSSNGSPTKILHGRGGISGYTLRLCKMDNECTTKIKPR
# Coagulation factor XI, sequence (P03951 388-625 limits assumed): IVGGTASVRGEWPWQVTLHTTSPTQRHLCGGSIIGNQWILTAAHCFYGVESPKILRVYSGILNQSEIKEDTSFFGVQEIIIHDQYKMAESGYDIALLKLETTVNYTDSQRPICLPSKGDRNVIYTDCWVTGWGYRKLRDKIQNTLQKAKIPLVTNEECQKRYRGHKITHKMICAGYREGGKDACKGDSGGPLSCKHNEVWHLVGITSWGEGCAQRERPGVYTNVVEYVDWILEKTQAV
# [15] = Acute toxicity in C57BL/6J mouse assessed as pathological changes in liver at 60 to 100 mg/kg, po administered as single dose for 14 days by H and E staining based analysis; type: organism-based; details: in vivo, 336 h, dose 60-100 mg/kg, time 14 day
# [16] = Apparent permeability in MDCK-MDR1 cells; type: ADME, cell-based, Canis lupus familiaris; details: dog
# Coagulation factor X = Coagulation factor X (Homo sapiens, UniProt P00742); test: Inhibition of FXa (unknown origin) using Z-D-Arg-Gly-Arg-pNA.2HCl as substrate incubated for 30 mins followed by substrate addition and measured after 60 mins by microplate reader analysis
# Coagulation factor X, sequence (P00742 41-179 limits assumed): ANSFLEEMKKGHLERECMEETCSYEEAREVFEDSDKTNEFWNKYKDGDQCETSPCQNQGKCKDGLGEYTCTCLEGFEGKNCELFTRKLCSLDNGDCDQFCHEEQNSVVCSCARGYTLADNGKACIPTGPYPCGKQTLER
# Coagulation factor X, sequence (P00742 235-488 limits assumed): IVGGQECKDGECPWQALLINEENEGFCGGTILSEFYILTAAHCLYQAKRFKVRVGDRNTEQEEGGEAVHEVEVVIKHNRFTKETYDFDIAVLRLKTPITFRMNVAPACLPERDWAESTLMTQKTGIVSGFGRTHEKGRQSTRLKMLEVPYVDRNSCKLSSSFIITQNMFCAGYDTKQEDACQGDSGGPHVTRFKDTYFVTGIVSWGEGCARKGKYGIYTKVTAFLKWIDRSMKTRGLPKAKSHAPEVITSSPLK
# [17] = Toxicity in C57BL/6J mouse assessed as prolongation of bleeding time at 30 to 60 mg/kg, IG measured after 30 mins by tail bleeding assay; type: organism-based; details: in vivo, po, 0.5 h, dose 30-60 mg/kg
# [18] = Acute toxicity in C57BL/6J mouse assessed as effect on serum aspartate aminotransferase level at 60 to 100 mg/kg, po measured after 24 hrs; type: organism-based; details: in vivo, dose 60-100 mg/kg
# [19] = Cytotoxicity against human AC16 [Human hybrid] cells assessed as reduction in cell viability at 1 to 50 uM incubated for 24 hrs by MTT assay; type: toxicity, cell-based; details: dose 1-50 µM
# [20] = target: Tissue-type plasminogen activator (Homo sapiens, UniProt P00750); test: Inhibition of tPA (unknown origin) using H-D-Ile-Pro-Arg-pNA-2HCl as substrate incubated for 30 mins followed by substrate addition and measured after 60 mins by microplate reader analysis
# Tissue-type plasminogen activator, sequence (P00750 whole entry): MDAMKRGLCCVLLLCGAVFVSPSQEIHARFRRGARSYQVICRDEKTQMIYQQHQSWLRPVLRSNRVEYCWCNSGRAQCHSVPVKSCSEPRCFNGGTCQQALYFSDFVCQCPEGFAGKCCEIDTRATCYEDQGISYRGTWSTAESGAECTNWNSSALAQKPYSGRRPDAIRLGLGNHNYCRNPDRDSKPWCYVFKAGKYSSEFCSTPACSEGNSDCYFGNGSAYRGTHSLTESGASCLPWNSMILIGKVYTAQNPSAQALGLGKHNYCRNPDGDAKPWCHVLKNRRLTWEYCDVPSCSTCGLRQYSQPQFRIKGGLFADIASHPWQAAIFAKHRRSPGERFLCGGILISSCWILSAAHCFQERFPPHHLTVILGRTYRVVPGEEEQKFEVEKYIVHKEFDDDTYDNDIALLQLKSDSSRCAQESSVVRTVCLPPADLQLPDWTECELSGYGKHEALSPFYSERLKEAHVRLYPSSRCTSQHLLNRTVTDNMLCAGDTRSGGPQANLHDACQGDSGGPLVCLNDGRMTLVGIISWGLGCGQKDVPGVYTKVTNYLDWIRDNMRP
# Plasma [21] = test: Anticoagulant activity in citrated human plasma assessed as prolongation of activated partial thromboplastin time at 1 uM incubated for 3 mins by aPTT reagent based automated coagulometric analysis relative to control; type: functional; details: 0.05 h
# Plasma [22] = test: Anticoagulant activity in citrated human plasma assessed as prolongation of activated partial thromboplastin time incubated for 3 mins by aPTT reagent based automated coagulometric analysis; type: functional
# [23] = Selectivity index, ratio of IC50 for inhibition of tPA (unknown origin) using H-D-Ile-Pro-Arg-pNA-2HCl as substrate to IC50 for inhibition of human FXIa using p-Glu-Pro-Arg-pNA.HCl as substrate
# Plasma kallikrein = Plasma kallikrein (Homo sapiens, UniProt P03952); test: Inhibition of PKal (unknown origin) using H-D-Pro-Phe-Arg-pNA.2HCl as substrate incubated for 30 mins followed by substrate addition and measured after 60 mins by microplate reader analysis
# Plasma kallikrein, sequence (P03952 20-390 limits assumed): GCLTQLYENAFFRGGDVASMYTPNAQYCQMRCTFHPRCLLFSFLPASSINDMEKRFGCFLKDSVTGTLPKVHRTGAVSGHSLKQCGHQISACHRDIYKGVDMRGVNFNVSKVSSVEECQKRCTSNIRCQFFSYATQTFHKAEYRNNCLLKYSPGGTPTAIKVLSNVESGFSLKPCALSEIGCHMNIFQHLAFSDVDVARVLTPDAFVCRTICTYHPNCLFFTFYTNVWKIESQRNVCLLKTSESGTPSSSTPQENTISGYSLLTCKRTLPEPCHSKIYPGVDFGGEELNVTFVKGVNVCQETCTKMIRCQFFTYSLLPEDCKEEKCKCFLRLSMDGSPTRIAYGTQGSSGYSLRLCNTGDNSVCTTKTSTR
# Plasma kallikrein, sequence (P03952 391-638 limits assumed): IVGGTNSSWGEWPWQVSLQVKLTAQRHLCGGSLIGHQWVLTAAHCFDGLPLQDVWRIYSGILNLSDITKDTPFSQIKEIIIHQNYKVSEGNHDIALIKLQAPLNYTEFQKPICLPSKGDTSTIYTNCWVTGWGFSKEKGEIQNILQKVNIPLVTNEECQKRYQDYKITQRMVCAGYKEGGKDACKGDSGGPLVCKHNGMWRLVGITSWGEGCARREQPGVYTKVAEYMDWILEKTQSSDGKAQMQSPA
# [24] = Acute toxicity in C57BL/6J mouse assessed as allergic reactions at 60 to 100 mg/kg, po administered as single dose for 14 days; type: organism-based; details: in vivo, 336 h, dose 60-100 mg/kg, time 14 day
# Oryctolagus cuniculus [25] = test: Antithrombotic activity in FeCl3-induced carotid arterial thrombosis male New Zealand white rabbits model assessed as reduction in dry thrombus weight at 6 mg/kg, iv preincubated for 30 mins followed by FeCl3 application for 5 and measured after 45 mins relative to control; type: functional, organism-based; details: time 80.0 min
# HK-2 = test: Cytotoxicity against human HK-2 cells assessed as reduction in cell viability at 1 to 50 uM incubated for 24 hrs by MTT assay; type: toxicity, cell-based; details: hk-2, 24 h, dose 1-50 µM
# Oryctolagus cuniculus [26] = test: Antithrombotic activity in FeCl3-induced carotid arterial thrombosis male New Zealand white rabbits model assessed as reduction in wet thrombus weight at 2 mg/kg, iv preincubated for 30 mins followed by FeCl3 application for 5 mins and measured after 30 mins relative to control; type: functional; parameters: scale not given: the % may be the effect or the level left; details: time 65 min, 1.083 h
# [27] = Acute toxicity in C57BL/6J mouse assessed as weight loss at 60 to 100 mg/kg, po administered as single dose for 14 days; type: organism-based; details: in vivo, 336 h, dose 60-100 mg/kg, time 14 day
compound,measurement,setting,value
COc1cn(Cc2cc(-c3ccc(N)nc3F)ccn2)c(=O)cc1-c1cc(Cl)ccc1-n1cnnn1,Activity,Mus musculus [1],Active; Pronounced Increase Observed Compared To Compound F
same,inhibition,Mus musculus [2],Active
same,Activity,Mus musculus [3],Dose-dependent-effect
same,Activity,[4],Non-toxic
same,Activity,Mus musculus [5],Active; Pronounced Increase Observed Compared To Compound F
same,Activity,[6],Non-toxic
same,Ratio IC50,[7],> 1000
same,Activity,[8],Non-toxic
same,Ratio IC50,[9],> 1000
same,Activity,[10],Non-toxic
same,Activity,[11],Non-toxic
same,IC50,Prothrombin,> 1000 nM
same,Activity,[12],Non-toxic
same,Ratio IC50,[13],> 1000
same,Activity,Plasma [14],inactive
same,IC50,Coagulation factor XI,0.19 nM
same,Activity,[15],Non-toxic
same,Papp,[16],0.5 ×10⁻⁶ cm/s
same,IC50,Coagulation factor X,> 1000 nM
same,Activity,[17],Non-toxic
same,Activity,[18],Non-toxic
same,Activity,[19],Non-toxic
same,IC50,[20],> 1000 nM
same,Activity,Plasma [21],247.3%
same,Activity,Plasma [22],Dose-dependent-effect
same,EC1.5,Plasma [22]; 0.05 h,0.43 µM
same,Ratio IC50,[23],> 1000
same,IC50,Plasma kallikrein,222 nM
same,Activity,[24],Non-toxic
same,Activity,Oryctolagus cuniculus [25],Active
same,Activity,HK-2,Non-toxic
same,Activity,Oryctolagus cuniculus [26],>50%
same,Activity,[27],Non-toxic

# Source: ChEMBL document CHEMBL6109084 (Eur J Med Chem, 2025)
